Measurements as given in patent US20020106347A1, “Cytokines and their use in treatment and/or prophylaxis of breast cancer” (priority 1995, published 2002).
Entries after “also recorded” stand apart in the source; their conditions may differ.

Experiments:
Format in all cases: cell-based, human
ER in MCF-7 cells = assay: ER expression by antibody staining on chamber slides; conditions: MCF-7, 6 days
Method: (§1) MCF-7 cells were grown on chamber slides for 6 days in RPMI/10% (v/v) BCS with the following growth factors, prior to being stained with an antibody specific for ER. […] Cells stained brown indicate ER positivity.
as §1

[1] = test system: primary normal breast cells; assay: Growth of primary normal breast cells in suspension culture; conditions: serum free breast media, 7 days
Method: FIG. 6 is a graphical representation of primary normal breast cells in suspension culture. 10^4 primary normal breast cells were cultured in 500 μl serum free breast media containing the indicated concentration of each of the growth factors (OSM and […]). After 7 days culture viable cells were counted using a hemacytometer. Cell numbers reported here are the results of 1 experiment, performed in triplicate.
Sterile normal breast tissue was obtained from reduction mammoplasty surgery. […] After 18 hours the mixture was centrifuged at 600 RCF/5 min, the supernatant discarded and the remaining cell pellet washed twice in RPMI-1640 supplemented with 10% (v/v) (v/v) BCS. […] Single cells adhered to the culture flasks and from these islands of cells epithelial cells grew. The media was subsequently removed and replaced with serum-free breast media. Partial trypsinisation removed any contaminating fibroblasts and the cells remaining were 95-100% epithelial. Cells were subsequently grown for approximately 30 days in the serum free breast media.

MCF-7 cells [2] = assay: Northern analysis of mRNA expression after OSM; conditions: OSM 10 ng/ml
Method: (§2) FIG. 12 is a photographic representation showing effect of OSM on the expression of Transforming Growth Factor α (TGFα), Epidemal Growth Factor Receptor (EGFR), Prolactin Receptor (PRLR), Estrogen Receptor (ER) and LIF mRNA. Cells growing in the presence of 10% (v/v) BCS were treated with OSM (10 ng/ml) and at the indicated time points duplicate 150 cm^2 flasks were harvested and mRNA extracted for Northern analysis. Results for control cells (C) are also shown. The same filter has been probed successively with a ^32P-labelled cDNA corresponding to each mRNA species. mRNA loading was evaluated by reprobing the filter with a fragment complementary to GAPDH. mRNA species of the following sizes were obtained: TGFα, 4.8 kb; PRLR, 10.5 and 8.6 kb; EGFR, 10.5 and 5.8 kb; ER, 6.5 and 3.8 kb and LIF, approx. 4.8 kb.
Cells havested from duplicate flasks were pooled and poly A+ mRNA extracted by an oligo-dT cellulose procedure (Boehringer Mannheim). Northern analysis was performed using 5 μg RNA per lane. Membranes (Hybond-C extra-Amersham) were hybridised (42° C. overnight) with probes labelled with α-^32P dCTP (bresatec). The membranes were washed at a stringency of 0.2× SSC (30 mM NaCl, 3 mM sodium citrate, pH 7.0)-0.1% (w/v) sodium dodecyl sulfate at 65° C. and exposed to Kodak X-Omat film at −70° C. mRNA loading was estimated by hybridising membranes with a 1.3 kb cDNA complementary to GAPDH.
as §2, with “Cells” for “FIG. 12 is a photographic representation showing effect of OSM on the expression of Transforming Growth Factor α (TGFα), Epidemal Growth Factor Receptor (EGFR), Prolactin Receptor (PRLR), Estrogen Receptor (ER) and LIF mRNA. Cells”

MCF-7 cells [3] = assay: Cell cycle analysis by flow cytometry (DNA content); conditions: MCF-7, serum-free medium
Method: FIG. 9 is a graphical representation showing the effect of OSM on cell cycle. MCF-7 cells treated with OSM while growing in serum-free medium were harvested by treatment with trypsin and stained for DNA content analysis by flow cytometry. Cell cycle distributions were calculated by computer fitting of the resultant histograms. […] FIG. 10(b) represents data from 2 experiments (performed in triplicate) where the number of cells in S phase are represented as a percentage of the corresponding untreated control value.
Cell cycle distributions were calculated by computer fitting of the resultant histograms. Results represent the combined data from 3 experiments (performed in triplicate) where the number of cells in S phase are represented as a percentage of the corresponding untreated control value.
Cell cycle analysis was performed in serum-free medium (Sigma). Analysis was performed 2-4 days after cells were washed and re-cultured in serum-free medium. Growth factors were added to the medium as indicated. At the times shown thereafter, cells were harvested with 0.05% (w/v) trpsin-0.02% (w/v) EDTA. The cells were resuspended in serum-free tissue culture medium and after cell counting using a hemacytometer, stained for later DNA analysis by the addition of 0.25% prothidium iodide in the presence of 0.2% (v/v) Triton X-100. DNA histograms were obtained by using a FACScan flow cytometer (Becton Dickinson Immunocytochemistry Systems) and the cell cycle phase distribution was estimated by using the manufacturer's DNA analysis software (Cellfit). Each histogram contained 10,000 events.

MDA-MB-231 cells = assay: Cell morphology after exposure to OSM; conditions: MDA-MB-231 exposed to OSM
Method: FIG. 15 is a photographic representation showing cell morphology after exposure to OSM. MCF-7 cells from control cultures (Panel A) and appearance of cells after culture for 14 days in OSM (10 ng/ml) (Panel B). MDA-MB-231 cells from control cultures (Panel C) and appearance of cells after culture for 7 days in OSM (Panel D).
The action of IL-6, LIF, OSM CNTF and IL-11 was examined on 4 breast cancer cell lines grown in monolayer culture. Striking changes in the morphology of cells were observed. FIG. 15 compares morphology of untreated cells with cells exposed to OSM. […] This was associated with the appearance of decreased intercellular adhesion or cellular contraction. These changes were quite marked by day 14.

[4] = from 2 hours, maintained for 48 hours

Substance: oncostatin M [OSM]
- cells staining very weakly for ER (ER in MCF-7 cells): 50%
- effect on proliferation (in words) [1]: profoundly inhibited the proliferation
- abundance of TGFα transcript (in words) (MCF-7 cells [2]): equivalent to control cells
- level of LIF transcript (in words) (MCF-7 cells [2]): upregulates
- elevation of EGFR mRNA abundance (MCF-7 cells [2]; between 4-12 hours): at least 5 fold
- level of expression of Estrogen Receptor (ER) mRNA (in words) (MCF-7 cells [2]; [4]): down regulate
- level of expression of Prolactin Receptor (PRLR) mRNA (in words) (MCF-7 cells [2]; [4]): down regulate
- effect on S phase fraction (in words) (MCF-7 cells [3]): marked decrease in the S phase cells; also recorded: decreased
- effect on percentage of cells in G1 phase (in words) (MCF-7 cells [3]): concomitant increase in the percentage of cells in G1 phase
- number of cells in S phase as percentage of control cells (MCF-7 cells [3]; by 24 hour): 50%
- percentage of cells in S phase following treatment (MCF-7 cells [3]; decreases from approximately 15% over a 72 hour time period): ~8%
- cell morphology (in words) (MDA-MB-231 cells): Transformation to a fibroblastic phenotype
